Assay results from article PMC3581075 (Journal of pharmaceutical sciences, 2011).
Structures can show the parent of a compound that is named as a salt. Where two headings read alike, the source gives them in different places.

How the values were obtained:
[1] = classification by solubility, permeability and extent of metabolism; cited from earlier work
rat hepatocytes [2] = system: rat hepatocytes
pooled rat microsomes [3] = assay: Microsome incubations, pooled rat microsomes; conditions: propranolol 10 μM, 0.5 mg/ml microsomes, 30 min, 37°C; rifampin 10 μM, quinidine 30 μM
pooled human microsomes [4] = assay: Microsome incubations, pooled human microsomes; conditions: propranolol 10 μM; quinidine 30 μM
pooled rat microsomes [5] = system: pooled rat microsomes
rat hepatocytes [6] = system: rat hepatocytes; remark: listed apart in the source
OATP1B3 = target: T1, OATP1B3 (Homo sapiens, UniProt Q9NPD5); conditions: on average; p<0.05
T1 sequence (Q9NPD5 1-702): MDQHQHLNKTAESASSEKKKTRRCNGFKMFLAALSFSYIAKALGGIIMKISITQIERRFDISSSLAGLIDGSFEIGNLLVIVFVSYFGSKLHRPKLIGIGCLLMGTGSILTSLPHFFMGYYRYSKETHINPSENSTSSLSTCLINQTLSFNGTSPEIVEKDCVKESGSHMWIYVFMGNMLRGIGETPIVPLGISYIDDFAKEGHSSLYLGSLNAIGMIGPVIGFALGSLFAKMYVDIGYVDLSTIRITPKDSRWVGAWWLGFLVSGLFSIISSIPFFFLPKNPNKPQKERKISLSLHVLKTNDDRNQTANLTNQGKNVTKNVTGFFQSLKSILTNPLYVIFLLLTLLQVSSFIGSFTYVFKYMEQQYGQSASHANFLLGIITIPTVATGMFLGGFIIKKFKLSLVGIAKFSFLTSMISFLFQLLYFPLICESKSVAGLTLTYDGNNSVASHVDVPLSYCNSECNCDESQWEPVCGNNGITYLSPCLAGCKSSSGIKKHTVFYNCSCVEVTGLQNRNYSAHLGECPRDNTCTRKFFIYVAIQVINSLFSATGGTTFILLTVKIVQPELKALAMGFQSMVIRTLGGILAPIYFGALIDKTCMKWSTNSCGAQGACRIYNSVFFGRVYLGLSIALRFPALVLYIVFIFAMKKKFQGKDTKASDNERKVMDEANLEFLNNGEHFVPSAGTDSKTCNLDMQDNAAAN

OATP2B1 = target: T2, OATP2B1 (Homo sapiens, UniProt O94956); conditions: on average; p<0.05
T2 sequence (O94956 1-709): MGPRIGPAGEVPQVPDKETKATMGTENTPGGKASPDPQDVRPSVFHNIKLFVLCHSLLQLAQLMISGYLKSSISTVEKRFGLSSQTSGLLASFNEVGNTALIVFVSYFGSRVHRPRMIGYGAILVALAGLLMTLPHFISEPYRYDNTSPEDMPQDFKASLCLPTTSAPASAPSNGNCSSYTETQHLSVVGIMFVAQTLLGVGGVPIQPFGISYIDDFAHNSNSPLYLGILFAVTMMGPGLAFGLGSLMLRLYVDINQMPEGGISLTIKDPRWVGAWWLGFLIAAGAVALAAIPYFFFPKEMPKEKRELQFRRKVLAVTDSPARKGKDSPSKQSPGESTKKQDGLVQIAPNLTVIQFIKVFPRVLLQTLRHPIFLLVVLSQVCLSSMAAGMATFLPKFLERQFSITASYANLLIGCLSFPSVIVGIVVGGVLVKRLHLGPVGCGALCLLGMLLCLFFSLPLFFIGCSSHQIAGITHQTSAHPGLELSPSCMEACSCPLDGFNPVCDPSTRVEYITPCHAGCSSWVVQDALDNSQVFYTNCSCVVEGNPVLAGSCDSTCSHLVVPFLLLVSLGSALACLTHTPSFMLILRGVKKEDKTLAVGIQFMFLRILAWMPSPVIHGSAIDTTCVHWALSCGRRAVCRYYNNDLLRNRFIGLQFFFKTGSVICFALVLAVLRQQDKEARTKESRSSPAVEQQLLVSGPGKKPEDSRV

rat hepatocytes [7] = system: rat hepatocytes; remark: listed apart in the source
pooled human microsomes [8] = system: pooled human microsomes
rat hepatocytes [9] = conditions: 2 min, rifampin 10 μM, MK-571 100 μM

Molecule: CC(C)NCC(O)COc1cccc2ccccc12 (stereo not shown) [propranolol]
- BDDCS class [1]: Class 1

Molecule: CCCCc1nc(Cl)c(CO)n1Cc1ccc(-c2ccccc2-c2nn[nH]n2)cc1 [losartan]
- BDDCS class [1]: Class 2
- Change in AUC of the cumulative metabolite (rat hepatocytes [2]): no change in metabolite formation

Molecule: C=C[C@H]1C[N@@]2CC[C@H]1C[C@@H]2[C@@H](O)c1ccnc2ccc(OC)cc12 [quinidine]
- Effect on metabolism of propranolol in rat microsomes (pooled rat microsomes [3]): inhibit metabolism
- Effect on metabolism of propranolol in human microsomes (pooled human microsomes [4]): inhibited propranolol metabolism

Molecule: CO[C@H]1/C=C/O[C@@]2(C)Oc3c(C)c(O)c4c(O)c(c(/C=N/N5CCN(C)CC5)c(O)c4c3C2=O)NC(=O)/C(C)=C\C=C\[C@H](C)[C@H](O)[C@@H](C)[C@@H](O)[C@@H](C)[C@H](OC(C)=O)[C@@H]1C [rifampin]
- Effect on metabolism of losartan in rat microsomes (pooled rat microsomes [5]): no change in metabolism
- Decrease of uptake of losartan in human hepatocytes compared to normal serum (human hepatocytes): 55%
- Change of uptake of eprosartan in rat hepatocytes compared to normal serum (rat hepatocytes [6]): no significant differences

Molecule: CC12CCC3c4ccc(OS(=O)(=O)O)cc4CCC3C1CCC2=O (stereo not shown) [[^3H]-estrone sulfate]
- Decrease of uptake in pcMV6 empty vector control vs OATP1B3 transfected cells (OATP1B3): 50%
- Decrease of uptake in pcMV6 empty vector control vs OATP2B1 transfected cells (OATP2B1): 80%

Molecule: CC[C@H](C)[C@H](NC(=O)[C@H](CC(=O)O)NC(=O)[C@H](CC(C)C)NC(=O)[C@H](Cc1cnc[nH]1)NC(=O)[C@@H]1CSSC[C@H](N)C(=O)N[C@@H](CO)C(=O)N[C@H]2CSSC[C@H](NC(=O)[C@H](CCC(=O)O)NC(=O)[C@H](CCCCN)NC(=O)[C@H](CC(=O)O)NC(=O)[C@H](CCSC)NC(=O)[C@H](CC(C)C)NC(=O)[C@H](CO)NC(=O)[C@H](CO)NC2=O)C(=O)N[C@@H](C(C)C)C(=O)N[C@@H](Cc2ccc(O)cc2)C(=O)N[C@@H](Cc2ccccc2)C(=O)N1)C(=O)N[C@H](C(=O)N[C@@H](Cc1c[nH]c2ccccc12)C(=O)O)[C@@H](C)CC [endothelin]
- Inhibition of uptake of losartan in rat hepatocytes (rat hepatocytes [7]): 22%

Molecule: Nc1ccc(S(=O)(=O)Nc2ccnn2-c2ccccc2)cc1 [sulfaphenazole]
- Effect on metabolism of losartan in rat microsomes (pooled rat microsomes [5]): decrease in metabolism
- Effect on metabolism of losartan in human microsomes (pooled human microsomes [8]): no inhibition of metabolism

Molecule: IL-6: interleukin-6, tested as uremic toxin
- Inhibition of uptake of losartan in rat hepatocytes (rat hepatocytes [9]; losartan 10 μM, p<0.05, n=4): 28%

Molecule: CCCCc1ncc(/C=C(\Cc2cccs2)C(=O)O)n1Cc1ccc(C(=O)O)cc1 [eprosartan]
- BDDCS class [1]: Class 4

Molecule: CN(C)C(=O)CCSC(SCCC(=O)O)c1cccc(/C=C/c2ccc3ccc(Cl)cc3n2)c1 (stereo not shown) [MK-571]
- Change of uptake of propranolol in rat hepatocytes (rat hepatocytes [9]; propranolol 10 μM, n=4): not significantly changed
